According to PMC9960827, “Cloning and Characterization of Trypanosoma congolense and T. vivax Nucleoside Transporters Reveal the Potential of P1-Type Carriers for the Discovery of Broad-Spectrum Nucleoside-Based Therapeutics against Animal African Trypanosomiasis” (International Journal of Molecular Sciences, 2023):
Read-outs that look alike come from different tables or passages of the source. Marks after values point to notes of the source that are not given here.

Legend:
[1] = test system: L. mexicana SUPKO; assay: microbe, parasite or virus in culture; type: cell-based, Leishmania mexicana; settings: for SUPKO RF (Cas9): Resistance Factor = EC50(SUPKO)/EC50(Cas9)
In short: (§1)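 Dose-response data were plotted against a sigmoid equation allowing a variable slope, and the EC50 was read from that fit. Replicates were independent determinations on separate days, at least three per value, then averaged.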

[2] = test system: T. congolense IL3000; assay: Alamar Blue (resazurin) assay, T. congolense IL3000; type: cell-based, Trypanosoma congolense; settings: Trypanosoma congolense, read-out: T. congolense IL3000 EC50
Method: (§2) EC50 values were determined by plotting to an equation for a sigmoid curve with variable slope (GraphPad Prism 8). All values were the average of at least three independent determinations on different days.

[3] = test system: T. congolense 6C3; assay: microbe, parasite or virus in culture; type: cell-based, Trypanosoma congolense; settings: for EC50: Trypanosoma congolense, read-out: T. congolense 6C3 EC50; for T. congolense 6C3 RF: resistance factor = EC50 (test strain)/EC50(control strain)
Method: as §2

[4] = test system: T.b.b. B48; assay: Alamar Blue (resazurin) assay, T. b. brucei B48; type: cell-based, Trypanosoma brucei brucei; settings: Trypanosoma brucei, read-out: T.b.b. B48 EC50
Method: as §2

[5] = test system: TcoAT1; assay: Uptake of [3H]-pentamidine and [3H]-diminazene in SUPKO+TcoAT1 versus SUPKO; type: cell-based, Trypanosoma congolense; settings: 25 nM [3H]-pentamidine or 50 nM [3H]-diminazene, SUPKO+TcoAT1 vs SUPKO
Method: Uptake assays using radiolabeled trypanocides and/or nucleosides were carried out as described previously. Briefly, parasite cultures were harvested, washed twice in assay buffer (33 mM HEPES, 98 mM NaCl, 4.6 mM KCl, 0.5 mM CaCl2, 0.07 mM MgSO4, 5.8 mM NaH3PO4, 0.03 mM MgCl2, 23 mM NaHCO3, 14 mM D-glucose, pH 7.3), then resuspended and adjusted to a density of 1 × 10^8 cells/mL in assay buffer. The radiolabeled permeant in the presence or absence of different concentrations of potential inhibitors reconstituted in 100 μL assay buffer was deposited on top of 250 μL oil mix in microcentrifuge tubes; 1 × 10^7 parasites in 100 μL assay buffer were added to the tube and incubated for a pre-determined interval. The reaction was stopped by the addition of 1 mL of a high concentration of ice-cold unlabeled substrate in assay buffer (‘stop solution’) and centrifugation, or by immediate centrifugation at […] as appropriate. The microcentrifuge tubes were flash-frozen, and the bottom of each tube containing the cell pellet was cut off and transferred to a scintillation vial. Cell pellets were lysed in 2% SDS, after which scintillation fluid (Scintlogic U, Lablogic) was added, followed by overnight incubation in the dark. Scintillation was measured in a 300SL (Hidex) scintillation counter (Hidex). […]

[6] = target: T. congolense adenosine transporter; assay: [3H]-adenosine uptake and its inhibition in T. congolense IL3000 bloodstream forms; type: cell-based, Trypanosoma congolense
Method: (§3) Uptake assays using radiolabeled trypanocides and/or nucleosides were carried out as described previously. Briefly, parasite cultures were harvested, washed twice in assay buffer (33 mM HEPES, 98 mM NaCl, 4.6 mM KCl, 0.5 mM CaCl2, 0.07 mM MgSO4, 5.8 mM NaH3PO4, 0.03 mM MgCl2, 23 mM NaHCO3, 14 mM D-glucose, pH 7.3), then resuspended and adjusted to a density of 1 × 10^8 cells/mL in assay buffer. The radiolabeled permeant in the presence or absence of different concentrations of potential inhibitors reconstituted in 100 μL assay buffer was deposited on top of 250 μL oil mix in microcentrifuge tubes; 1 × 10^7 parasites in 100 μL assay buffer were added to the tube and incubated for a pre-determined interval. The reaction was stopped by the addition of 1 mL of a high concentration of ice-cold unlabeled substrate in assay buffer (‘stop solution’) and centrifugation, or by immediate centrifugation at […] as appropriate. The microcentrifuge tubes were flash-frozen, and the bottom of each tube containing the cell pellet was cut off and transferred to a scintillation vial. Cell pellets were lysed in 2% SDS, after which scintillation fluid (Scintlogic U, Lablogic) was added, followed by overnight incubation in the dark. Scintillation was measured in a 300SL (Hidex) scintillation counter (Hidex). All the assays were conducted in triplicate and analysis was carried out using Microsoft Excel and GraphPad Prism. All kinetic parameters were obtained on at least 3 separate occasions.
(§4) The dose-dependent uptake assay allowed for the affinity of nucleoside analogs to different nucleoside transporters to be determined by measuring the extent to which the analogs compete with and inhibit the uptake of radiolabel adenosine. This allowed for the determination of biochemical parameters such as Km and Vmax through the application of the Michaelis–Menten equation V0 = Vmax([substrate]/([substrate] + Km)). The 50% Inhibitory Concentration (IC50) of the purines and pyrimidines and their analogs was determined from non-linear regression to sigmoid curves with variable slope (Prism 8), and the IC50 of the inhibitor and the Km of the labeled permeant were then used to calculate the inhibition constant (Ki) of the analogs through the Cheng–Prusoff equation: Ki = IC50/(1 + (L/Km)), where L denotes the radiolabel concentration. The calculated Ki was in turn used to determine the Gibbs free energy (ΔG^0) of the inhibitor–transporter interaction using the equation: ΔG^0 = -RTln(Ki), where R represents the gas constant and T symbolizes the absolute temperature in Kelvin [104].

[7] = target: TcoAT1; type: cell-based, Trypanosoma congolense
Text: (§5) The information for the T. congolense adenosine transporter (TcoAT1) and four putative T. vivax nucleoside transporters was obtained in the TritrypDB (tritrypdb.org/tritrypdb) genome database. Primers were designed to flank each gene upstream of the 5′ end (forward) and downstream of the 3′ end (reverse) as described (primer sequences in Supplementary Table S2). Following amplification from the genomic DNA of T. congolense or T. vivax, DNA for each extracted gene was ligated into the pNUS-HcN expression vector doubly digested with NdeI using the NEBuilder kit according to the manufacturer’s instructions (New England Biolabs). Construct was transformed into competent E. coli cells, and ligation was confirmed by restriction enzyme digestion of isolated plasmid DNA followed by Sanger sequencing (Source BioScience, Nottingham, UK). Confirmed plasmids were then transfected into L. mexicana cell line in which both NT1 and NT2 were doubly knocked out (SUPKO) and derived from L. mexicana Cas9 [64] as described. Clones grown in medium containing 50 μg/mL neomycin (G418) were collected for further confirmation by PCR with genomic DNA using a forward primer of the transporter gene and a reverse primer of the plasmid.
as §3, §4

[8] = target: TvxNT3 (Trypanosoma vivax, UniProt F9WV62); assay: cell-based; type: cell-based
Chain of TvxNT3 (F9WV62 entry or part of it): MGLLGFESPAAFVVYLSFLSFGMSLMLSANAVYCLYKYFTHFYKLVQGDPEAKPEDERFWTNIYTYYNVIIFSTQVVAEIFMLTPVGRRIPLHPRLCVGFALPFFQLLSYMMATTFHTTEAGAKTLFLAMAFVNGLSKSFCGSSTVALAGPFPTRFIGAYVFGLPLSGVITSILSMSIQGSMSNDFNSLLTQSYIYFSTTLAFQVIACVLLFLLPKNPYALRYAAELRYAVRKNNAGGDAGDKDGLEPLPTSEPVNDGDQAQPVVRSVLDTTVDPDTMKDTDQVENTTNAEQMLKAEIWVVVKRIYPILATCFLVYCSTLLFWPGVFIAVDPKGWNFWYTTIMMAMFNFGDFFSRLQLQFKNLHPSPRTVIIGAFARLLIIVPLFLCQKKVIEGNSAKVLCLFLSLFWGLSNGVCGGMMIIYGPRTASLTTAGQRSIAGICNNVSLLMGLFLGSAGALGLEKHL
Text: as §5, §3, §4

[9] = target: T. b. brucei P1 (TbP1/NT2); settings: cited from earlier work
[10] = test system: TbNT10; set-up: method as in Al-Salabi et al. [40]; settings: called Km values; ref Al-Salabi et al. [40]; cited from earlier work
[11] = test system: L. mexicana Cas9; assay: Resazurin drug sensitivity assay, LmexCas9; type: cell-based, Leishmania mexicana; settings: Leishmania mexicana, read-out: LmexCas9 EC50
In short: as §1

[12] = test system: L. mexicana SUPKO+TcoAT1; assay: microbe, parasite or virus in culture; type: cell-based, Leishmania mexicana
In short: as §1

[13] = test system: L. mexicana SUPKO+TvxNT3; assay: microbe, parasite or virus in culture; type: cell-based, Leishmania mexicana
In short: as §1

[14] = test system: L. mexicana expressing TbAQP2; set-up: method as in PMID 24235095; settings: cited from earlier work
[15] = Resistance Factor relative to SUPKO

N=C(N)c1ccc(/N=N/Nc2ccc(C(=N)N)cc2)cc1 [Diminazene, reference compound]
SUPKO RF (Cas9) [1]: 1.27 | EC50 [2]: 0.23 ± 0.04 µM | EC50 ([3]; diminazene resistant strain, resazurin): 1.32 ± 0.43 µM | T. congolense 6C3 RF [3]: 5.7 ^a | EC50 [4]: 0.34 ± 0.13 µM | effect of the expression of TcoAT1 on the uptake of the trypanocide [5]: no effect

O=c1[nH]cnc2c1ncn2[C@@H]1O[C@H](CO)[C@@H](O)[C@H]1O [Inosine]
Ki ([6]; 0.05 µM [3H]-adenosine, 30 s, IC50 converted to Ki, read-out: Ki on the transport of [3H]-adenosine): 0.27 ± 0.02 µM | ΔG0, Gibbs free energy of interaction ([6]; calculated from Km or Ki): -8.96 kcal/mol | Ki ([7]; 0.05 µM [3H]-adenosine, 10 s, IC50 converted to Ki, read-out: Ki on the transport of [3H]-adenosine): 0.55 ± 0.09 µM | ΔG0 ([7]; Gibbs free energy of binding, from Km or Ki): -8.53 kcal/mol | δ(ΔG0) ([7]; loss of Gibbs free energy of binding relative to the parent nucleoside): 0.163 kcal/mol | remaining activity at 100 µM ([8]; 100 µM inhibitor, 50 nM [3H]-adenosine, read-out: [3H]-adenosine uptake remaining in presence of inhibitor): < 25% | δ(ΔG0) ([8]; difference in ΔG0 relative to the parent purine (adenosine or inosine)): 1.21 kcal/mol | Ki ([9]; T. b. brucei bloodstream forms, read-out: Tbb P1 Ki): 0.44 ± 0.1 µM | Tbb P1 ΔG0 [9]: -8.68 kcal/mol | Km [10]: 0.53 µM

N=C(N)c1ccc(OCCCCCOc2ccc(C(=N)N)cc2)cc1 [Pentamidine, reference compound]
EC50 [11]: 1.43 ± 0.05 µM | EC50 ([12]; Leishmania mexicana, read-out: SUPKO+TcoAT1 EC50): 1.73 ± 0.2 µM | SUPKO+TcoAT1 RF (SUPKO) [12, 15]: 1.1 | EC50 ([13]; Leishmania mexicana, read-out: SUPKO+TvxNT3 EC50): 2.31 ± 0.18 µM | SUPKO+TvxNT3 RF (SUPKO) [13, 15]: 0.77 | EC50 ([1]; Leishmania mexicana, read-out: SUPKO EC50, resazurin, promastigotes): 1.83 ± 0.29 µM | SUPKO RF (Cas9) [1]: 1.28 | EC50 ([2]; BSF, resazurin): 0.55 ± 0.11 µM | EC50 [3]: 0.44 ± 0.15 µM | T. congolense 6C3 RF [3]: 0.79 | EC50 [4]: 0.34 ± 0.06 µM | effect of the expression of TcoAT1 on the uptake of the trypanocide [5]: no effect | sensitization upon expression of TbAQP2 [14]: 40 fold
